Assay results: US20020058244A1, “Method for detecting uracil biosynthesis inhibitors and their use as herbicides” (priority 2000, published 2002)
Entries after “also recorded” stand apart in the source; their conditions may differ. Where two headings read alike, the source gives them in different places.

Tests used:
Arabidopsis = Arabidopsis 96 well microtiter plate injury and reversal test; type: in vivo; conditions: for uracil biosynthesis inhibitory activity: reversal assay, see Table III; for reversal of lethal effects by uridine: 100 μM uridine
Protocol: The compounds were tested in a 96 microtiter well plate containing various concentrations of probe compound with or without intermediates of the pyrimidine and purine biosynthesis pathways to detect reversal of injury. Plates were filled with 0.7% agar medium, seeded with Arabidopsis, and placed in a growth chamber for several days to allow for seed germination and plant growth. Arabidopsis plates were rated on a scale from 0 to 9 where 0 represents no injury, and 9 represents no germination. In addition, injury symptoms observed were recorded.

[1] = Stability in aqueous solution by mass spectroscopy and NMR; type: physicochemical; conditions: for half-life: aqueous solution
Protocol: The stability analysis of the compound “B”, compound “C”, compound “G”, and compound “E” compounds was performed using a Hewlett Packard HP1100 LC system coupled to a Micromass Platfom-LC mass spectrometer operating with an electrospray ionization source. In positive ion electrospray, AC12254 82A produced molecules at m/z 112(M^+), m/z 153 (M+41) at a cone voltage of 30V. Retention time of AC 12254 82A was 12.54 min with absorption maxima of 248 and 314 nm.
Column: Hypersil Spherisorb Waters ODS(2), 3.6×150 mm
Eluent: 60% acetonitrile, 40% water (0.1% formic acid)
Photodiode Array Detection: Scan Range: 190-600 nm
1H NMR was taken in DMSO-d6 on a 500 MHZ Bruker NMR Spectrometer. […] Each had 5 protons as follows: NH, 2OH and 2 CH.

DHOD = experiment: In vitro conversion of [14C]dihydroorotate to orotate, corn root microsomal preparation; type: biochemical
Protocol: (§1) Etiolated corn roots and shoots or soybean suspension cells were used as tissue. Corn seedlings were germinated on vermiculite for 4 days in the dark at 26_C. and roots and shoots harvested separately. The soybean cells were grown in media consisting of Muashige and Skoog salts (Physiol. Plant (1962) 15:473-497) purchased from Gibco/BRL, vitamins (glycine 2 mg/L, thiamine 0.1 mg/L, nicotinic acid 0.5 mg/L, pyridoxine-HCl 0.5 mg/L), myo-inositol (100 mg/L), 2,4-D ([…]), and 30 g/L sucrose. Cell cultures are grown at 25° C. with gentle shaking. Cultures were transfered every 7 days to new growth media.
(§2) Approximately 5-10 g plant tissue were ground in liquid nitrogen and resuspended in 1:2 (w/v) homogenization buffer (30 mM KPO4^−; 25 mM […], 5 mM MgCl2, 5 mM ascorbic acid, pH 7.2). The homogenate was centrifuged at 10,000 g for 20 min, and the supernatant desalted using BioRad columns. The desalted supernatant was used for OPRTase/ODCase enzyme assays. For DHOD enzyme extraction, the supernatant was further centrifuged at 100,000 g for 45 min to obtain a microsomal pellet. The microsomal pellet was resuspended in 3-4 ml resuspension buffer (70 mM Tris-base, pH 7.4) containing 1% Triton X-100.
(§3) All enzyme assays were performed according to Rawls, J. M. (1978) Anal. Biochem. 86 (1): 107-117 and Cleaveland et al. (1995). Biochem. Pharm. 49(7):947-954. Enzyme assays were performed in a total volume of 200 ul with 1 uM [^14C]carbamoyl aspartate, [^14C]dihydroorotate or [^14C]orotate as substrates, and 1-5 mM probe compound or barbiturate as inhibitors. The [^14C]carbamoyl aspartate and [^14C]dihydroorotate assay was performed using a potassium phosphate buffer, pH 7.4 with 12 mM NAD^+, and 10 mM MgCl2. The [^14C]orotate enzyme assay was performed using Tris buffer, pH 8.8 with 12 mM PRPP and 10 mM MgCl2. Over time, 25 ul aliquots were taken from the reaction tube and boiled for 5 min to stop the reaction. Samples were spotted onto cellulose TLC plates and run using 0.1 M potassium phosphate buffer, 100% ammonium sulfate, and 1-propanol (10:6:1). Plates were developed using a TLC plate radioisotope detector. Orotate and UMP standards were run next to unknowns to identify the conversion of [^14C]orotate to [^14C]UMP in the enzyme assay.

DHO = experiment: In vitro conversion of [14C]dihydroorotate to carbamoyl aspartate, corn root microsomal preparation; type: biochemical
Protocol: as §1, §2, §3

grass species = experiment: Greenhouse herbicide efficacy, preemergence and post-emergence, whole plant injury; type: in vivo; conditions: preemergence and post-emergence applications
From the text: (§4) The compounds were applied to flats containing individually potted plant species as post-emergent treatments, or seeded flats without emerged plants for preemergent treatments. The compounds were delivered in an 80% acetone solution plus 0.2% X-77. After two or three weeks of treatment, plants were rated compared to controls on a scale of 0 to 9 where 0 represents no injury and 9 represents 100% injury.

wheat = experiment: Greenhouse herbicide efficacy, crop safety; type: in vivo; conditions: preemergence and post-emergence applications
From the text: as §4

[2] = system: uracil biosynthesis pathway; experiment: [14C]-carbamoyl aspartate incorporation into uracil/uridine and orotate in soybean cell cultures; type: cell-based
Protocol: Soybean suspension cultures in the linear growth phase were used for [^14C]carbamoyl aspartate uptake and incorporation studies. Cells were treated with 0.01 uM [^14C]carbamoyl aspartate (approximately 200,000-400,000 dpm) with or without 100 uM compound “B”. Over time, aliquots were harvested by filtration, and rinsed thoroughly with potassium phosphate buffer, pH 3.11. Aliquots of uptake media and rinse were counted using a liquid scintillation spectrophotometer to determine percent uptake. Cells were immediately weighed, ground to a fine powder in liquid nitrogen, and suspended in 50% methanol. The homogenate was centrifuged at 10,000 g for 20 min. A portion of the pellet was weighed out and combusted to determine dpm's associated with this fraction. An aliquot of the supernatant was counted to determine the amount of label in the soluble fraction. Recovery of applied radiolabeled [^14C]carbamyol aspartate was 90-100%.
The soluble supernatant was concentrated overnight by lyophilization, and the extract was resuspended in 1 ml potassium phosphate buffer, pH 3.11. For HPLC analysis an anion exchange column was used with 85:15% potassium phosphate buffer, pH 3.11 and acetonitrile as running buffers. Fractions (1 ml) were collected for 20 min (flow rate […]), and counted using a liquid scintillation counter (LSC). UV absorbance was analyzed at 260 and 275 nm as the optimum absorbency wavelengths for UMP and orotate, respectively. Standards were used to identify the various peaks from the HPLC profile. Standard retention times under these conditions were: 3-4 min uracil/uridine, 7-9 min carbamoyl aspartate, 11-13 min UMP, and 17-19 min orotate.

OPRTase/ODCase = experiment: In vitro enzymatic conversion of [14C]-orotate to UMP, cell free extract from corn root tissue; type: biochemical; conditions: for effect on OPRTase/ODCase activity (conversion of [14C]-orotate to UMP): cell free extract
Protocol: as §1, §2
as §3, with “The [^14C]orotate enzyme assay was performed using Tris buffer, pH 8.8 with 12 mM PRPP and 10 mM MgCl2.” left out

ODCase = target: T1, ODCase (Rattus norvegicus, UniProt A0ACM8Q7Z8); conditions: rat brain tissue; cited from earlier work
T1 construct: host or cells: rat brain tissue
T1 sequence (A0ACM8Q7Z8 entry or part of it): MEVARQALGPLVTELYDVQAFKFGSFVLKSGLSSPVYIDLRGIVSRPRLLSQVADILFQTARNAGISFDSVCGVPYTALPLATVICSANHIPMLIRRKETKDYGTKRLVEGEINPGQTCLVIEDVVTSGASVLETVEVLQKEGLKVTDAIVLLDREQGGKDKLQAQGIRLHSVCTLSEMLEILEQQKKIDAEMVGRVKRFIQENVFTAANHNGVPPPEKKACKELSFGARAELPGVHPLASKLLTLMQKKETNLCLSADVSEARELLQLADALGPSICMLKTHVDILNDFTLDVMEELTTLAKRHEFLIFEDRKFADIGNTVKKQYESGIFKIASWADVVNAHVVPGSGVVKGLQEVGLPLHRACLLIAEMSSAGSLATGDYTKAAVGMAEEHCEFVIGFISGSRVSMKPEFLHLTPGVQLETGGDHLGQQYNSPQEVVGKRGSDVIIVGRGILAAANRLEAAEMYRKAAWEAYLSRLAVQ

Structure (SMILES): CN1N=CC(=CNc2ccc(F)cc2F)C1=O [G, 4-[[(2,4-difluorophenyl)amino]methylene]-2,4-dihydro-2-methyl-3H-pyrazol-3-one]
- uracil biosynthesis inhibitory activity (Arabidopsis): only marginal
- stability in aqueous solution [1]: relatively stable
- half-life [1]: > 24 h

Structure (SMILES): O=C(O)C1C=NNC1=O (stereo not shown) [J, 4,5-dihydro-5-oxo-1H-pyrazole-4-carboxylic acid; or 2,3-dihydro-3-oxo-1H-pyrazole-4-carboxylic acid]
- effect on DHOD activity (dihydroorotate converted to orotate) versus untreated control (DHOD): no difference
- effect on DHO activity (dihydroorotate converted to carbamoyl aspartate) versus untreated control (DHO): no difference

Structure (SMILES): O=C1NN=C/C1=C/Nc1ccc(F)cc1F [B, 4-[[(2,4-difluorophenyl)amino]methylene]-2,4-dihydro-3H-pyrazol-3-one]
- herbicidal effect, injury (grass species): ≥ 50%
- effect on DHOD activity (dihydroorotate converted to orotate) versus untreated control (DHOD): no difference
- effect on DHOD activity (dihydroorotate converted to orotate) versus untreated control (DHOD; listed as probe compound): did not inhibit
- effect on DHO activity (dihydroorotate converted to carbamoyl aspartate) versus untreated control (DHO): no difference
- effect on DHO activity (dihydroorotate converted to carbamoyl aspartate) versus untreated control (DHO; listed as probe compound): did not inhibit
- germination of Arabidopsis seeds (Arabidopsis; 1 μM): normal germination
- germination of Arabidopsis seeds (Arabidopsis; 16 μM): partial germination
- growth inhibition (Arabidopsis; 30 uM combined with 100 uM uracil): 0%
- germination of Arabidopsis seeds (Arabidopsis; 50 μM): not observed
- germination of Arabidopsis seeds (Arabidopsis; 100 μM): not observed
- reversal of injury by uracil, UMP and uridine (Arabidopsis; 100 uM antidote in growth media): reversed
- reversal of lethal effects by uridine (Arabidopsis; highest tested concentration of compound): does not reverse
- reversal of lethal effects by uridine (Arabidopsis; lower concentrations of compound (Rows 2-4)): reversed
- germination of Arabidopsis seeds (Arabidopsis; 500 μM): not observed
- inhibition at 30 µM (Arabidopsis; Arabidopsis thaliana, 30 uM, compound alone, read-out: growth inhibition): 50%
- IC50 (Arabidopsis; Arabidopsis thaliana, 96 well microtiter plate, read-out: estimated IC50 on Arabidopsis): 30 µM
- reversal of herbicidal effects by orotate or OMP (Arabidopsis; in vivo): did not reverse
- reversal of herbicidal effects by vitamins or purines (Arabidopsis; in vivo): Neither vitamins nor purines reversed
- reversal of lethal effects by adenine, cytosine, guanine, and thymidine (Arabidopsis; in vivo): did not reverse
- crop safety (wheat): safety on wheat
- half-life [1]: < 24 h
- incorporation of radiolabeled carbamoyl aspartate into uracil/uridine ([2]; 50 μM): 25%
- incorporation of radiolabeled carbamoyl aspartate into uracil/uridine ([2]; 100 μM): 10%
- incorporation of [14C]-carbamoyl aspartate into orotate peak (16-19 min) ([2]; 100 uM, HPLC profile FIG. 6): 70%
- incorporation of radiolabeled carbamoyl aspartate into uracil/uridine ([2]; 100 μM, listed as probe compound): 19%
- incorporation of radiolabeled carbamoyl aspartate into orotic acid ([2]; 1 and 10 μM): 0-5%
- incorporation of radiolabeled carbamoyl aspartate into uracil/uridine ([2]; 1 and 10 μM): 80-90%
- incorporation of radiolabeled carbamoyl aspartate into orotic acid ([2]; 50 and 100 μM): 45-60%
- IC50 ([2]; Glycine max, soybean cell cultures, estimated, read-out: IC50 of inhibition of [14C]-carbamoyl aspartate incorporation): ~50 µM
- radiolabeled orotate converted to UMP (OPRTase/ODCase; 15 minutes after treatment, 100 μM PRPP, untreated control 55%): 55%
- effect on OPRTase/ODCase activity (conversion of [14C]-orotate to UMP) (OPRTase/ODCase): does not affect
- effect on OPRTase/ODCase activity (conversion of [14C]-orotate to UMP) (OPRTase/ODCase; listed as probe compound): did not inhibit

Structure (SMILES): O=c1cnn([C@@H]2O[C@H](CO)[C@@H](O)[C@H]2O)c(=O)[nH]1 [Compound 6-Azauridine, 6-Azauridine, reference compound]
- effect on OPRTase/ODCase activity (conversion of [14C]-orotate to UMP) (OPRTase/ODCase): not shown to inhibit

Structure (SMILES): O=C1CC(=O)N([C@@H]2O[C@H](COP(=O)(O)O)[C@@H](O)[C@H]2O)C(=O)N1 [ribotide of barbiturate]
- Ki (ODCase): 0.0041 µM

Structure (SMILES): O=c1[nH][nH]cc1C=NO [D, 2,3-dihydro-3-oxo-1H-pyrazole-4-carboxaldehyde-4-oxime]
- effect on DHOD activity (dihydroorotate converted to orotate) versus untreated control (DHOD): no difference
- effect on DHO activity (dihydroorotate converted to carbamoyl aspartate) versus untreated control (DHO): no difference

Structure (SMILES): CN(C)C=C1C=NNC1=O [E, 4-[(dimethylamino)methylene]-2,4-dihydro-3H-pyrazol-3-one]
- uracil biosynthesis inhibitory activity (Arabidopsis): significant
- stability in aqueous solution [1]: stable in aqueous solution with no hydrolysis detected; also recorded: stable
